Data set [1] concerns MIA PaCa-2 (pancreatic carcinoma) cells, p53R248W. The class given is cell-based. The following applies: 48 h. On the procedure:
(§1) Cells were cultured in 96 wells plates with 2500-4000 cells/well. Serial dilutions of different peptides were added and the plates incubated for additional 48 h at 37° C. Then medium was removed and cell viability was determined by staining the cells with crystal violet (0.05%) in methanol/PBS (1:5, v/v), for 10 min, followed by 3 washes with PBS. 10% acetic acid was added to each well for 10 min. OD was determined at 595 nm.
(§2) The IC50 tables presented in FIGS. 17-20 are from several representative experiments performed on cell lines expressing several p53 hotspot mutations, as well as control non-transformed cells: […]

Data set [2] has as its system PANC1 (pancreatic carcinoma) cells, p53R273H. The class given is cell-based. The note with it: 48 h. The protocol:
as §1, §2

Data set [3] concerns WI38 (non-transformed fibroblasts) cells, wtp53. The class given is cell-based. The following applies: 48 h. On the procedure: as §1, §2
For data set [4], the system named is panel of cell lines expressing mutp53. The class given is cell-based. On the procedure: as §1
The IC50 tables presented in FIGS. 17-20 are from several representative experiments performed on cell lines expressing several p53 hotspot mutations, as well as control non-transformed cells:
Proline residue position—Based on alanine scanning and molecular dynamics analyses, it is believed that the proline residue at the 6th position from the N-terminal is critical for the peptide's 3D structure and provides some rigidity required for peptide binding and activity. Therefore, it was hypothesized that a change in orientation or tetrahedral angle might increase the affinity of the peptide for p53. Six new peptides were synthesized replacing this proline residue with proline analogs (pCAPs 708-712, and pCAP-716, SEQ ID NOS: 6-10 and 14, respectively). This set of peptides was tested for activity on a panel of cell lines expressing mutp53, and compared it to pCAP-674 (SEQ ID NO: 27) and to the scrambled sequence peptides pCAP-721 (SEQ ID NO: 19) and pCAP-722 (SEQ ID NO: 20).

A short description of data set [5]: Solubility at physiological pH. The class given is physicochemical.

Where a SMILES comes first, the peptide text is derived from it. [ ]: non-standard residue; d: D form. The star is where a group is joined. Myristoyl = CCCCCCCCCCCCCC(=O)*; Dab = NCC[C@H](N)C(=O)O

The values that follow come from patent US20230127559A1, “PEPTIDE ANALOGS AND USE OF SAME IN TREATING DISEASES, DISORDERS OR CONDITIONS ASSOCIATED WITH MUTANT P53 PROTEIN” (YEDA RESEARCH AND DEVELOPMENT CO. LTD., priority 2020, published 2023).

By IC50 is commonly meant the midpoint of a concentration-inhibition curve. Low readings indicate greater potency, high ones weaker potency.

`CCCCCCCCCCCCCC(=O)N[C@@H](CCCNC(=N)N)C(=O)N[C@@H](CCCNC(=N)N)C(=O)N[C@@H](Cc1c[nH]cn1)C(=O)N[C@@H](CO)C(=O)N[C@@H](C(=O)N1CCC[C@H]1C(=O)N[C@@H](CCN)C(=O)N1CCC[C@H]1C(=O)N[C@@H](CC(=O)O)C(=O)O)C(C)C` [pCAP-553, myr-RRHSvP(L-Dab)PD] (Myristoyl-RRHS[dV]P[Dab]PD-OH; C-terminus assumed): the IC50 was 1200 nM in data set [1], 2100 nM in data set [2] and above 40 µM in data set [3]. In data set [4], the “activity in viability assays compared with other peptides (in words)” value is reported as “improved efficacy relatively to pCAP-250”. Besides, in data set [5], the “solubility (in words)” value is “better solubility at physiological pH”.
